Results published in patent US20040110771A1, “7-(r)-aminotriazolopyrimidines, the production thereof and use of the same for combatting phytopathogenic fungi” (priority 2000, published 2004).

Key:
Type in all cases: in vivo
[1] = tested on: Blumeria graminis forma specialis tritici; assay: Activity against mildew of wheat caused by Blumeria graminis forma specialis tritici; settings: wheat seedlings "Kanzler", dusted with spores 24 h after spraying, 7 days
Method: (§1) The active compounds were prepared separately or jointly as a 10% strength emulsion in a mixture of 70% by weight of cyclohexanone, 20% by weight of Nekanil® LN (Lutensol® AP6, wetting agent having emulsifying and dispersing action based on ethoxylated alkylphenols) and 10% by weight of Wettol® EM (nonionic emulsifier based on ethoxylated castor oil) and diluted with water to the desired concentration.
Leaves of potted wheat seedlings of the cultivar “Kanzler” were sprayed to runoff point with an aqueous preparation of active compound which had been prepared from a stock solution made of 10% of active compound, 85% of cyclohexanone and 5% of emulsifier and were dusted 24 hours after the spray coating had dried on with spores of mildew of wheat (Blumeria graminis forma specialis tritici). The test plants were then placed in a greenhouse at 20-24° C. and 60-90% relative atmospheric humidity. After 7 days, the extent of the mildew development was determined visually in % infection of the entire leaf area.

Pyrenophora teres = assay: Activity against net blotch of barley caused by Pyrenophora teres; settings: barley seedlings "Igri", inoculated 24 h after spraying, 6 days
Method: as §1
Leaves of potted barley seedlings of the cultivar “Igri” were sprayed to runoff point with an aqueous preparation of active compound which had been prepared from a stock solution made of 10% of active compound, 85% of cyclohexanone and 5% of emulsifier and were inoculated 24 hours after the spray coating had dried on with an aqueous spore suspension of Pyrenophora teres, the net blotch pathogen. The test plants were then placed in a greenhouse at 20-24° C. and 95-100% relative atmospheric humidity. After 6 days, the extent of the development of the disease was determined visually in % infection of the entire leaf area.

Puccinia recondita = assay: Curative activity against brown rust of wheat caused by Puccinia recondita; settings: curative spray 24 h after inoculation, wheat seedlings "Kanzler", 7 days
Method: as §1
Leaves of potted wheat seedlings of the cultivar “Kanzler” were dusted with spores of brown rust (Puccinia recondita). The pots were then placed in a chamber with high atmospheric humidity (90 to 95%) at 20-22° C. for 24 hours. During this period, the spores germinated and the germinal tubes penetrated into the leaf tissue. The following day, the infected plants were sprayed to runoff point with an aqueous preparation of active compound which had been prepared from a stock solution made of 10% of active compound, 85% of cyclohexanone and 5% of emulsifier. After the spray coating had dried on, the test plants were cultivated in a greenhouse at 20-22° C. and 65-70% relative atmospheric humidity for 7 days. The extent of the rust fungus development on the leaves was then determined.

Compound	% infection of the leaves after application of an aqueous preparation comprising . . . ppm of active compound ([1]; 16 ppm) [%]	% infection of the leaves after application of an aqueous preparation comprising . . . ppm of active compound ([1]; 63 ppm) [%]	% infection of the leaves after application of an aqueous preparation comprising . . . ppm of active compound ([1]; 250 ppm) [%]	% infection of the leaves after application of an aqueous preparation comprising . . . ppm of active compound (Pyrenophora teres; 16 ppm) [%]	% infection of the leaves after application of an aqueous preparation comprising . . . ppm of active compound (Pyrenophora teres; 63 ppm) [%]	% infection of the leaves after application of an aqueous preparation comprising . . . ppm of active compound (Pyrenophora teres; 250 ppm) [%]	% infection of the leaves after application of an aqueous preparation comprising . . . ppm of active compound (Puccinia recondita; 250 ppm) [%]	% infection of the leaves after application of an aqueous preparation comprising . . . ppm of active compound (Puccinia recondita; 16 ppm) [%]	% infection of the leaves after application of an aqueous preparation comprising . . . ppm of active compound (Puccinia recondita; 63 ppm) [%]
Cc1cccc(F)c1-c1c(Cl)nc2ncnn2c1NC(C)C(C)(C)C (single isomer, unassigned) [I.-12a]	7	7	7	0	0	0			
Cc1cccc(F)c1-c1c(Cl)nc2ncnn2c1N[C@H](C)C(C)(C)C (single isomer, unassigned) [I.-12b]	60	60	60	7	7	0			
C[C@@H](Nc1c(-c2c(F)cccc2Cl)c(Cl)nc2ncnn12)C(C)(C)C [I.-3]							20		
CC(Nc1c(-c2c(F)cccc2F)c(Cl)nc2ncnn12)C(C)(C)C (stereo not shown) [I.-6]		50	40	0	0				
CC(Nc1c(-c2c(Cl)cccc2Cl)c(Cl)nc2ncnn12)C(C)(C)C (stereo not shown) [I.-9]				0	0	0			
Cc1cc(F)ccc1-c1c(Cl)nc2ncnn2c1NC(C)C(C)(C)C (stereo not shown) [I.-24]	10	5	3						
CCCCCC(C)Nc1c(-c2c(F)cc(F)cc2F)c(Cl)nc2ncnn12 (stereo not shown) [I.-28]				90	40	20			
C[C@@H](Nc1c(-c2c(F)cc(F)cc2F)c(Cl)nc2ncnn12)C1CCCCC1 [I.-31]	15	7	5	40	3	0			
CC[C@@H](C)Nc1c(-c2ccccc2Cl)c(Cl)nc2ncnn12 [I.-42]							5	30	20
CC(Nc1c(-c2c(F)cccc2Cl)c(Cl)nc2ncnn12)C(C)(C)C [comparison (S)-amine of I.-3]							100		
C[C@H](Nc1c(-c2c(F)cccc2F)c(Cl)nc2ncnn12)C(C)(C)C [comparison (S)-amine of I.-6]		90	90	60	5				
C[C@H](Nc1c(-c2c(Cl)cccc2Cl)c(Cl)nc2ncnn12)C(C)(C)C [comparison (S)-amine of I.-9]				100	100	100			
Cc1cccc(F)c1-c1c(Cl)nc2ncnn2c1NC(C)C(C)(C)C [comparison (S)-amine of I.-12a]	100	100	100	100	100	100			
Cc1cccc(F)c1-c1c(Cl)nc2ncnn2c1NC(C)C(C)(C)C [comparison (S)-amine of I.-12b]	100	100	100	100	100	100			
Cc1cc(F)ccc1-c1c(Cl)nc2ncnn2c1NC(C)C(C)(C)C [comparison (S)-amine of I.-24]	60	60	15						
CCCCC[C@H](C)Nc1c(-c2c(F)cc(F)cc2F)c(Cl)nc2ncnn12 [comparison (S)-amine of I.-28]				100	100	100			
C[C@H](Nc1c(-c2c(F)cc(F)cc2F)c(Cl)nc2ncnn12)C1CCCCC1 [comparison (S)-amine of I.-31]	50	50	15	100	80	80			
CCC(C)Nc1c(-c2ccccc2Cl)c(Cl)nc2ncnn12 [comparison (S)-amine of I.-42]							15	100	60
